Data: ChEMBL document CHEMBL3046894, “Synthesis and Herbicidal Activity of Pyrimidinyl Salicylic and Thiosalicylic Acids” (J Pestic Sci, 1996)
Calls of active or inactive are those of the source. The rule behind the calls is not given here.

Columns and labels:
Gossypium hirsutum [1] = experiment: Post-emergence phytotoxicity against Gossypium hirsutum (cotton) assessed as mortality per 10 acre; assay type: organism-based; conditions: in vivo
Echinochloa crus-galli [2] = experiment: Pre-emergence herbicidal activity against Echinochloa crus-galli (barnyard grass) assessed as mortality at 6.3 g a.i/10 a; assay type: functional; conditions: Echinochloa crus-galli, pre-emergence
Ipomoea lacunosa [3] = experiment: Post-emergence herbicidal activity against Ipomoea lacunosa assessed as mortality at 1.6 g a.i/10 a applied 11 days after germination as foliar spray; assay type: functional; conditions: 264 h
Abutilon theophrasti [4] = experiment: Post-emergence herbicidal activity against Abutilon theophrasti (velvetleaf) assessed as mortality at 6.3 g a.i/10 a applied 11 days after germination as foliar spray; assay type: functional; conditions: 264 h
Gossypium hirsutum [5] = experiment: Pre-emergence phytotoxicity against Gossypium hirsutum (cotton) assessed as mortality at 6.3 g a.i/10 a; assay type: organism-based; conditions: in vivo, other
Glycine max [6] = experiment: Pre-emergence phytotoxicity against Glycine max (soybean) assessed as mortality at 1.6 g a.i/10 a; assay type: organism-based; conditions: in vivo, other
Glycine max [7] = experiment: (§1) Pre-emergence phytotoxicity against Glycine max (soybean) assessed as mortality at 6.3 g a.i/10 a; assay type: organism-based; conditions: in vivo, other
[8] = (§2) Pre-emergence phytotoxicity against Zea mays (maize) assessed as mortality at 1.6 g a.i/10 a; assay type: organism-based; conditions: in vivo, 1.6 g a.i/10 a, read-out: mortality
Gossypium hirsutum [9] = experiment: Post-emergence phytotoxicity against Gossypium hirsutum (cotton) assessed as mortality at 1.6 g a.i/10 a applied 11 days after germination as foliar spray; assay type: organism-based; conditions: in vivo, other, 264 h
Gossypium hirsutum [10] = experiment: (§3) Post-emergence phytotoxicity against Gossypium hirsutum (cotton) assessed as mortality at 6.3 g a.i/10 a applied 11 days after germination as foliar spray; assay type: organism-based; conditions: in vivo, other, 264 h
[11] = Post-emergence phytotoxicity against Glycine max (soybean) assessed as mortality at 1.6 g a.i/10 a applied 11 days after germination as foliar spray; assay type: organism-based; conditions: in vivo, 1.6 g a.i/10 a
[12] = Post-emergence phytotoxicity against Zea mays (maize) assessed as mortality at 1.6 g a.i/10 a applied 11 days after germination as foliar spray; assay type: organism-based; conditions: in vivo, 1.6 g a.i/10 a
Xanthium strumarium [13] = experiment: Post-emergence herbicidal activity against Xanthium strumarium (cocklebur) assessed as mortality at 1.6 g a.i/10 a applied 11 days after germination as foliar spray; assay type: functional; conditions: 264 h
Echinochloa crus-galli [14] = experiment: Post-emergence herbicidal activity against Echinochloa crus-galli (barnyard grass) assessed as mortality at 6.3 g a.i/10 a applied 11 days after germination as foliar spray; assay type: functional; conditions: 264 h
Cyperus iria [15] = experiment: Pre-emergence herbicidal activity against Cyperus iria assessed as growth inhibition at 25 g a.i/10 a; assay type: functional, organism-based
Chenopodium album [16] = experiment: Pre-emergence herbicidal activity against Chenopodium album assessed as growth inhibition at 25 g a.i/10 a; assay type: functional, organism-based
Amaranthus retroflexus [17] = experiment: Pre-emergence herbicidal activity against Amaranthus retroflexus assessed as growth inhibition at 25 g a.i/10 a; assay type: functional, organism-based
Persicaria nodosa [18] = experiment: Pre-emergence herbicidal activity against Persicaria nodosa assessed as growth inhibition at 25 g a.i/10 a; assay type: functional, organism-based
Digitaria sanguinalis [19] = experiment: Pre-emergence herbicidal activity against Digitaria sanguinalis (hairy crabgrass) assessed as growth inhibition at 25 g a.i/10 a; assay type: functional, organism-based
Echinochloa crus-galli [20] = experiment: Pre-emergence herbicidal activity against Echinochloa crus-galli (barnyard grass) assessed as growth inhibition at 25 g a.i/10 a; assay type: functional, organism-based
Cyperus iria [21] = experiment: Post-emergence herbicidal activity against Cyperus iria assessed as growth inhibition at 25 g a.i/10 a applied 11 days after germination as foliar spray; assay type: functional, organism-based
Chenopodium album [22] = experiment: Post-emergence herbicidal activity against Chenopodium album assessed as growth inhibition at 25 g a.i/10 a applied 11 days after germination as foliar spray; assay type: functional, organism-based
Amaranthus retroflexus [23] = experiment: Post-emergence herbicidal activity against Amaranthus retroflexus assessed as growth inhibition at 25 g a.i/10 a applied 11 days after germination as foliar spray; assay type: functional, organism-based
Persicaria nodosa [24] = experiment: Post-emergence herbicidal activity against Persicaria nodosa assessed as growth inhibition at 25 g a.i/10 a applied 11 days after germination as foliar spray; assay type: functional, organism-based
Digitaria sanguinalis [25] = experiment: Post-emergence herbicidal activity against Digitaria sanguinalis (hairy crabgrass) assessed as growth inhibition at 25 g a.i/10 a applied 11 days after germination as foliar spray; assay type: functional, organism-based
Echinochloa crus-galli [26] = experiment: Post-emergence herbicidal activity against Echinochloa crus-galli (barnyard grass) assessed as growth inhibition at 25 g a.i/10 a applied 11 days after germination as foliar spray; assay type: functional, organism-based
Ipomoea lacunosa [27] = experiment: Pre-emergence herbicidal activity against Ipomoea lacunosa assessed as mortality per 10 acre; assay type: functional
Persicaria nodosa [28] = experiment: Pre-emergence herbicidal activity against Persicaria nodosa assessed as mortality per 10 acre; assay type: functional
Amaranthus retroflexus [29] = experiment: Pre-emergence herbicidal activity against Amaranthus retroflexus assessed as mortality per 10 acre; assay type: functional
Echinochloa crus-galli [30] = experiment: Pre-emergence herbicidal activity against Echinochloa crus-galli (barnyard grass) assessed as mortality per 10 acre; assay type: functional
Gossypium hirsutum [31] = experiment: Pre-emergence phytotoxicity against Gossypium hirsutum (cotton) assessed as mortality per 10 acre; assay type: organism-based; conditions: in vivo
Xanthium strumarium [32] = experiment: Post-emergence herbicidal activity against Xanthium strumarium (cocklebur) assessed as mortality per 10 acre; assay type: functional
Ipomoea lacunosa [33] = experiment: Post-emergence herbicidal activity against Ipomoea lacunosa assessed as mortality per 10 acre; assay type: functional
Persicaria nodosa [34] = experiment: Post-emergence herbicidal activity against Persicaria nodosa assessed as mortality per 10 acre; assay type: functional
Amaranthus retroflexus [35] = experiment: Post-emergence herbicidal activity against Amaranthus retroflexus assessed as mortality per 10 acre; assay type: functional
Echinochloa crus-galli [36] = experiment: Post-emergence herbicidal activity against Echinochloa crus-galli (barnyard grass) assessed as mortality per 10 acre; assay type: functional
Xanthium strumarium [37] = experiment: Pre-emergence herbicidal activity against Xanthium strumarium (cocklebur) assessed as mortality at 1.6 g a.i/10 a; assay type: functional; conditions: Xanthium strumarium, pre-emergence
Ipomoea lacunosa [38] = experiment: Pre-emergence herbicidal activity against Ipomoea lacunosa assessed as mortality at 1.6 g a.i/10 a; assay type: functional; conditions: Ipomoea lacunosa, pre-emergence
Ipomoea lacunosa [39] = experiment: Pre-emergence herbicidal activity against Ipomoea lacunosa assessed as mortality at 6.3 g a.i/10 a; assay type: functional; conditions: Ipomoea lacunosa, pre-emergence
Xanthium strumarium [40] = experiment: Pre-emergence herbicidal activity against Xanthium strumarium (cocklebur) assessed as mortality per 10 acre; assay type: functional
Abutilon theophrasti [41] = experiment: Post-emergence herbicidal activity against Abutilon theophrasti (velvetleaf) assessed as mortality at 1.6 g a.i/10 a applied 11 days after germination as foliar spray; assay type: functional; conditions: 264 h
[42] = as §1; assay type: organism-based; conditions: in vivo, 6.3 g a.i/10 a, read-out: mortality
Zea mays = experiment: as §2; assay type: organism-based; conditions: in vivo, other
[43] = as §3; assay type: organism-based; conditions: in vivo, 6.3 g a.i/10 a
Xanthium strumarium [44] = experiment: Pre-emergence herbicidal activity against Xanthium strumarium (cocklebur) assessed as mortality at 6.3 g a.i/10 a; assay type: functional; conditions: Xanthium strumarium, pre-emergence
Abutilon theophrasti [45] = experiment: Pre-emergence herbicidal activity against Abutilon theophrasti (velvetleaf) assessed as mortality at 6.3 g a.i/10 a; assay type: functional; conditions: Abutilon theophrasti, pre-emergence

SMILES	mortality at 63 g/ha (Echinochloa crus-galli [2]) [%]	mortality at 63 g/ha (Abutilon theophrasti [4]) [%]	Activity (Gossypium hirsutum [5])	Activity (Glycine max [6])	Activity (Gossypium hirsutum [9])	mortality at 264 h [11] [%]	mortality at 264 h [12] [%]	mortality at 16 g/ha (Xanthium strumarium [13]) [%]	mortality at 63 g/ha (Echinochloa crus-galli [14]) [%]	growth inhibition (GI) (Cyperus iria [15])	growth inhibition (GI) (Chenopodium album [16])	growth inhibition (GI) (Amaranthus retroflexus [17])	growth inhibition (GI) (Persicaria nodosa [18])	growth inhibition (GI) (Digitaria sanguinalis [19])	growth inhibition (GI) (Echinochloa crus-galli [20])	growth inhibition (GI) (Cyperus iria [21])	growth inhibition (GI) (Chenopodium album [22])	growth inhibition (GI) (Amaranthus retroflexus [23])	growth inhibition (GI) (Persicaria nodosa [24])	growth inhibition (GI) (Digitaria sanguinalis [25])	other results
COc1cc(OC)nc(Oc2cccc(C)c2C(=O)O)n1	> 90	> 90	Non-toxic	Toxic	Non-toxic	> 90	> 90	< 5	> 90	Active	Active	Active	Active	Active	Active	Active	Active	Active	Active	Active	ED20 (Gossypium hirsutum [1]): 0.4 gAi; mortality at 16 g/ha (Ipomoea lacunosa [3]): < 5%; Activity (Glycine max [7]): Toxic; mortality [8]: > 90%; Activity (Gossypium hirsutum [10]): Non-toxic; growth inhibition (GI) (Echinochloa crus-galli [26]): Active; ED90 (Ipomoea lacunosa [27]): >100 gAi; ED90 (Persicaria nodosa [28]): Active; ED90 (Amaranthus retroflexus [29]): inactive; ED90 (Echinochloa crus-galli [30]): Active; ED20 (Gossypium hirsutum [31]): Toxic; ED90 (Xanthium strumarium [32]): 25 gAi; ED90 (Ipomoea lacunosa [33]): 100 gAi; ED90 (Persicaria nodosa [34]): 0.4 gAi; ED90 (Amaranthus retroflexus [35]): 0.2 gAi; ED90 (Echinochloa crus-galli [36]): inactive; mortality at 16 g/ha (Xanthium strumarium [37]): < 5%; mortality at 16 g/ha (Ipomoea lacunosa [38]): < 5%; mortality at 63 g/ha (Ipomoea lacunosa [39]): < 5%; ED90 (Xanthium strumarium [40]): >100 gAi
COc1cc(OC)nc(Oc2cccc(OC)c2C(=O)O)n1	> 90	> 90	Non-toxic	Non-toxic	Toxic	> 90	> 90	< 5	> 90	Active	Active	Active	Active	Active	Active	Active	Active	Active	Active	Active	mortality at 16 g/ha (Abutilon theophrasti [41]): > 90%; mortality [42]: > 90%; Activity (Zea mays): Toxic; mortality at 264 h [43]: > 90%; growth inhibition (GI) (Echinochloa crus-galli [26]): Active; mortality at 16 g/ha (Xanthium strumarium [37]): < 5%; mortality at 63 g/ha (Xanthium strumarium [44]): < 5%; mortality at 16 g/ha (Ipomoea lacunosa [38]): < 5%; mortality at 63 g/ha (Ipomoea lacunosa [39]): < 5%; mortality at 63 g/ha (Abutilon theophrasti [45]): > 90%
